Patent US8541628B2, “Complex cationic lipids having quaternary nitrogens therein” (Vical Incorporated, priority 1995, dated 2013)
“Also recorded” adds a separate entry of the source.

Key:
[1] = test system: C2C12 mouse myoblast muscle cells; assay: In vitro transfection of C2C12 cells (pRSV lacZ, β-galactosidase expression; DMRIE as reference standard); assay type: cell-based; conditions: for Activity C2C12: cytofectin activity relative to DMRIE, comparison symbols, key not given
Method: (§1) Solutions of a DMRIE or GMU-DMRIE in chloroform were prepared on a weight to volume (w/v) basis. Aliquots of cationic lipid and neutral lipid (when used) were transferred aseptically to sterile vials in amounts calculated to provide the relative and absolute lipid concentrations desired upon reconstitution with 1 ml of aqueous vehicle. Bulk chloroform was removed with a stream of dry nitrogen, and the vials were treated with high vacuum overnight to remove any residual solvent.
(§2) Plasmid DNA at 5 mg/ml of phosphate buffered saline (PBS) as well as the dried, formulated cytofectin-neutral lipid mixture were suspended in OPTIMEM™ (Gibco BRL) and mixed together in 96 well plates at the desired mass/molar ratio as indicated in the Tables. The DNA-lipid complexes were added to the cells within 2 hours after mixing.
(§3) All cells were passaged 1:5 to 1:10 in 10% fetal bovine serum (FBS) and Dulbecco's Modified Eagles medium (DMEM). All cells were expanded through 10 doubling passages upon receipt and aliquots were stored frozen. Upon re-expansion, all cells were used for transfection studies before another 10 passages.
(§4) On day 0, 20,000 cells in 100 microliters 10% FEBS/90% DMEM were seeded into each well of 96-well culture plates (Nunc) and cultured overnight in a 5% CO2 incubator at 37° C. On Day 1, the medium was aspirated carefully without dislodging cells, and 100 microliters of GMU-DMRIE/pRSV lacZ/DOPE in serum-free OPTIMEM™ (Gibco BRL) was added. DMRIE was used as a reference standard. The lacZ gene encodes the enzyme β-galactosidase which can be assayed colorimetricaly. The cationic lipid:DOPE ratios varied for each well. After 4 hours of culture, 50 microliters 30% FBS/70% OPTIMEM™ was added to each well. On Day 2, each well received 100 microliters 10% FEBS/90% OPTIMEM™. On Day 3, the medium was removed and 50 microliters lysis buffer (0.1% Triton-X100 in 250 mM Tris, pH 8.0) was added and the plates were stored at […] for at least 20 hours.

[2] = test system: murine B16 tumor cells; assay: Intraperitoneal tumor assay (CAT DNA, CAT activity in tumors); assay type: in vivo, C57/B16 mice; conditions: 0.5 mg CAT DNA i.p., 10:1 molar ratio of cytofectin:DNA, tumors two days later, FIG. 5; for CAT expression in tumor cells: control DNA alone
Method: Two hundred thousand murine B16 tumor cells in 500 μl RPMI were injected intraperitoneally into C57/B16 mice at day 0. At day 7-14, mice received intraperitoneal injections of 0.5 mg CAT DNA in 1.5 ml saline containing cytofectin at a 10:1 molar ratio of cytofectin:DNA. The cationic lipids used were DMRIE, GAP-DMRIE, GAP-DLRIE, and GMU-DLRIE. Two days later, tumors were collected, extracted and assayed for CAT activity as described in Example 7. The CAT activities observed with the cytofectin formulations is compared to a control receiving DNA alone in FIG. 5. […] CAT activity was greatest in cells transfected with DMRIE.

[3] = test system: BF16F10 melanoma tumors; assay: Subcutaneous melanoma tumor model (intratumoral cytofectin/CAT plasmid complex, CAT activity); assay type: in vivo, BALB/C mice; conditions: intratumoral injection; tumors collected after 48 hours; FIG. 7
Method: Tumors are prepared by injecting a suspension of tumor cells subcutaneously on the side of a mouse strain which is compatible with the specific tumor type. The tumors are periodically measured. Once they have reached a size suitable for injection, the tumor volume is approximated based on the measured diameter assuming a spherical tumor. A complex of the cytofectin to be evaluated with a plasmid encoding a reporter gene in a volume of saline equal to the volume of the tumor to be treated is then injected at a flow rate optimized for the particular tumor type. After an appropriate time, the tumors are collected, frozen, then ground up. The reporter gene product is subsequently extracted and the quantity which was expressed is determined using extraction and assay conditions appropriate for the particular gene product being used. A variety of tumor types may be evaluated using this general technique, and different reporter genes are more or less appropriate depending on the tumor type. A specific example of this assay involving melanoma tumors is provided in Example 14 below.
BF16F10 melanoma tumors are propagated in 90% RPMI 1640/10% Fetal Bovine Serum. The tumors are injected subcutaneously into the side of BALB/C mice in 75 μL of a suspension containing approximately 10^6 cells/mL tissue culture medium. When the tumors have reached 4.5 to 7 mm in diameter the volume of each individual tumor is calculated by measuring the diameter of the tumor and assuming a spherical tumor. For each individual tumor, a volume of the cytofectin/CAT plasmid complex in saline equivalent to the calculated volume of the tumor is injected into the tumor at a rate of 2 mL/min. After 48 hours, the tumors are collected, frozen, ground up, and extracted with 1.5 mL of extraction buffer as described in Example 3. CAT activity is quantitated as described below. […]

[4] = test system: COS7 monkey kidney cells; assay: In vitro transfection of COS7 cells (pRSV lacZ, β-galactosidase expression; DMRIE as reference standard); assay type: cell-based; conditions: for Activity Cos7: cytofectin activity relative to DMRIE, comparison symbols, key not given
Method: as §1, §2, §3, §4

[5] = test system: influenza nuclear protein (NP) antibody titers; assay type: in vivo, Balb/c mice; conditions: cytofectin:DOPE 1:1, pDNA-phosphate/cytofectin 4:1, serum at 6 weeks, FIG. 6; for activity in NP antibody assay compared with naked DNA alone: 10 μgr pDNA per animal, day 0 and 3 weeks

CCCCCCCCCCCCCCOCC(C[N+](C)(C)CCCCNC(=O)NC)OCCCCCCCCCCCCCC.[Br-] (centres unmarked) [DMU, δ-aminobutyl DMRIE, Methyl Urea]
Activity C2C12 [1]: ≧

CCCCCCCCCCCCOCC(C[N+](C)(C)CCCN)OCCCCCCCCCCCC (centres unmarked) [GAP-DLRIE]
CAT activity, cytofectins compared with one another [2]: nearly as effective as DMRIE; also recorded: significant activity | CAT expression in tumor cells [2]: significant CAT expression

CCCCCCCCCCCCCCOCC(C[N+](C)(C)CCCNC(N)=S)OCCCCCCCCCCCCCC (centres unmarked) [GTU-DMRIE, DMRIE-γ-thiourea]
CAT activity in subcutaneous melanoma, among the compounds tested [3]: particularly high activity

γ-aminopropyl-DMRIE, α-arabonosyl thiourea [Ara-TU-DMRIE]
Activity Cos7 [4]: ≈ | Activity C2C12 [1]: < | activity in NP antibody assay compared with naked DNA alone [5]: greater activity than naked DNA alone

γ-aminopropyl-DMRIE,α-glucosyl thiourea [Glc-TU-DMRIE]
Activity Cos7 [4]: ≧ | Activity C2C12 [1]: ≦ | activity in NP antibody assay compared with naked DNA alone [5]: greater activity than naked DNA alone

DMRIE carboxylate (methionine-methyl ester) amide [DOx-Met-OMe]
Activity C2C12 [1]: <

Serine-δ-DMRIE amide [δ-ser-DMRIE]
Activity Cos7 [4]: ≈ | Activity C2C12 [1]: ≦

CCCCCCCCCCCCOCC(C[N+](C)(CCCN)CCCN)OCCCCCCCCCCCC (centres unmarked) [BPA-DLRIE]
activity in NP antibody assay compared with naked DNA alone [5]: greater activity than naked DNA alone | activity in NP antibody assay, among the compounds tested [5]: particularly high activity

Hydroxypropyl DMRIE Methyl Carbamate [ΥMC]
Activity Cos7 [4]: ≈ | Activity C2C12 [1]: ≈

CCCCCCCCCCCCCCOCC(C[N+](C)(C)CCCN)OCCCCCCCCCCCCCC (centres unmarked) [GAP-DMRIE]
CAT activity, cytofectins compared with one another [2]: significant activity | CAT expression in tumor cells [2]: significant CAT expression

CCCCCCCCCCCCCCOCC(C[N+](C)(C)CCCNC(=O)NC)OCCCCCCCCCCCCCC (centres unmarked) [GMU, γ-aminopropyl-DMRIE,Methyl Urea]
levels of β-gal activity compared with DMRIE ([4]; COS7 cells): higher levels of activity than those achieved by DMRIE | Total β-gal expression ([4]; COS7 cells, GMU-DMRIE alone (no DOPE)): significantly decreased | total expression of β-gal ([4]; COS7 cells, GMU-DMRIE/DOPE ratio of 75:25): highly effective | Activity Cos7 [4]: ≧ | levels of total β-gal activity compared with DMRIE ([1]; C2C12 cells): significantly higher levels of total activity than DMRIE | Total β-gal expression ([1]; C2C12 cells, GMU-DMRIE alone (no DOPE)): significantly decreased | Activity C2C12 [1]: ≈

DMRIE Methyl carbamate [βMC]
Activity Cos7 [4]: ≈ | Activity C2C12 [1]: ≈

Hydroxybutyl DMRIE Methyl Carbamate [δMC]
Activity Cos7 [4]: ≈ | Activity C2C12 [1]: ≈

CCCCCCCCCCCCCCOCC(C[N+](C)(C)CCO)OCCCCCCCCCCCCCC.[Br-] (racemic) [DMRIE, 1-propanaminium, N-(2-hydroxyethyl)-N,N-dimethyl-2,3-bis(tetradecyloxy)-bromide, (±)-, reference compound]
CAT activity, cytofectins compared with one another [2]: greatest | CAT expression in tumor cells [2]: significant CAT expression

pGlutamate-histidine-proline-γ-DMRIE amide [TRH-γ-DMRIE]
Activity Cos7 [4]: ≈

CCCCCCCCCCCCCCOCC(C[N+](C)(C)CCNC(=O)NC)OCCCCCCCCCCCCCC.[Br-] (stereo not drawn) [BMU, β-aminoethyl-DMRIE,Methyl Urea]
Activity Cos7 [4]: ≧ | Activity C2C12 [1]: ≦ | activity in NP antibody assay compared with naked DNA alone [5]: greater activity than naked DNA alone | activity in NP antibody assay, among the compounds tested [5]: particularly high activity

CCCCCCCCCCCCCCOCC(C[N+](C)(CCCN)CCCCN)OCCCCCCCCCCCCCC (centres unmarked) [PABA-DMRIE]
activity in NP antibody assay compared with naked DNA alone [5]: greater activity than naked DNA alone | activity in NP antibody assay, among the compounds tested [5]: particularly high activity

γ-aminopropyl-DMRIE, Arginine Methyl Ester Urea [Arg(OMe)-GU-DMRIE]
CAT activity in subcutaneous melanoma, among the compounds tested [3]: particularly high activity

CCCCCCCCCCCCOCC(C[N+](C)(C)CCCNC(=O)NC)OCCCCCCCCCCCC (centres unmarked) [GMU-DLRIE]
CAT expression in tumor cells [2]: significant CAT expression

CCCCCCCCCCCCCCOCC(C[N+](C)(CCCN)CCCN)OCCCCCCCCCCCCCC (centres unmarked) [BPA-DMRIE]
activity in NP antibody assay compared with naked DNA alone [5]: greater activity than naked DNA alone | activity in NP antibody assay, among the compounds tested [5]: particularly high activity | CAT activity in subcutaneous melanoma, among the compounds tested [3]: particularly high activity

γ-aminopropyl-DMRIE,α-galactosyl thiourea [Gal-TU-DMRIE]
Activity Cos7 [4]: ≧ | Activity C2C12 [1]: ≈ | activity in NP antibody assay compared with naked DNA alone [5]: greater activity than naked DNA alone
